Measured values reported in ChEMBL document CHEMBL1141761, “Constituents of the pericarp of Garcinia subelliptica” (J Nat Prod, 2005).
In brackets after ≈: the same amount, converted by molar mass. Activity calls are given as the source filed them. No cut-off for these calls is given here.

Tests used:
[1] = tested on: Hep 3B2; experiment: (§1) Cytotoxicity against human Hep3B cells by MTT assay; assay type: functional, cell-based
[2] = tested on: HT-29; experiment: Cytotoxicity against human HT-29 cells by MTT assay; assay type: functional, cell-based
[3] = tested on: MCF7; experiment: Cytotoxicity against human MCF7 cells by MTT assay; assay type: functional, cell-based
[4] = as §1; assay type: functional, cell-based, Hep 3B2

Structure (SMILES)	Activity [1]	Activity [2]	Activity [3]	IC50 [4]	IC60 [2]	IC50 [3]	IC50 [2]
C=C(C)CC[C@@H](CC=C(C)C)[C@@H](C(=C)C)[C@](C)(CC=C(C)C)C(=O)c1cccc(O)c1	inactive	inactive	inactive	–	–	–	–
O=c1[nH]cc(F)c(=O)[nH]1 [FLUOROURACIL]	–	–	–	0.072 µg/mL (≈ 0.554 µM)	0.074 µg/mL (≈ 0.569 µM)	0.0012 µg/mL (≈ 0.00923 µM)	–
C=C(C)CC[C@@H](C[C@@H]1C[C@]2(CC=C(C)C)C(=O)[C@@](C(=O)c3ccc(O)c(O)c3)(C(=O)C3=C2O[C@@H](C(C)(C)O)C3)C1(C)C)C(=C)C [GARCINIELLIPTONE FB]	–	–	–	6.3 µg/mL (≈ 10.2 µM)	–	6.8 µg/mL (≈ 11 µM)	11.2 µg/mL (≈ 18.1 µM)
